Patent US8642612B2, “Nicotinic desensitizers and methods of selecting, testing, and using them” (Potomac Pharmaceuticals, Inc., priority 2006, dated 2014)
Read-outs that look alike come from different tables or passages of the source.

Legend:
[1] = cited from earlier work
[2] = target: native nAChRs from rat forebrain (Rattus norvegicus, UniProt P09483+P12390); details: read-out: Ki Forebrain (rat); 100 pM [3H]EB; published previously (Xiao and Kellar, 2004); cited from earlier work
rat α3β4 nAChRs [3] = target: T1, rat α3β4 nAChRs (Rattus norvegicus, UniProt P04757+P12392); assay: Inhibition of nicotine-stimulated 86Rb+ efflux, cells expressing rat α3β4 nAChRs; format: cell-based
T1 construct: expressed in transfected cells; the efflux text says only stably transfected cells
Description: (§1) In brief, cells were plated into 24-well plates coated with poly-D-lysine. […] The cells were then incubated in growth medium (0.5 ml/well) containing ^86Rb^+ (2 μCi/ml) for 4 hour at 37° C. The loading mixture was then aspirated, and the cells were washed four times with 1 ml buffer (15 mM HEPES, 140 mM NaCl, 2 mM KCl, 1 mM MgSO4, 1.8 mM CaCl2, 11 mM Glucose, pH 7.4). One ml of buffer with or without compounds to be tested was then added to each well. After incubation for 2 min, the assay buffer was collected for measurements of ^86Rb^+ released from the cells. Cells were then lysed by adding 1 ml of 100 mM NaOH to each well, and the lysate was collected for determination of the amount of ^86Rb^+ that was in the cells at the end of the efflux assay. Radioactivity of assay samples and lysates was measured by liquid scintillation counting. Total loading (cpm) was calculated as the sum of the assay sample and the lysate of each well. The amount of ^86Rb^+ efflux was expressed as a percentage of […] loaded. […] IC50 values were determined by nonlinear least-squares regression analyses (GraphPad, San Diego, Calif.).

rat α3β4 nAChRs [4] = target: T1, rat α3β4 nAChRs; details: 100 pM [3H]EB; published previously (Xiao and Kellar, 2004); cited from earlier work
rat α4β2 nAChRs [5] = target: T2, rat α4β2 nAChRs (Rattus norvegicus, UniProt P09483+P12390); details: 100 pM [3H]EB; published previously (Xiao and Kellar, 2004); cited from earlier work
T2 construct: expressed in transfected cells; host or cells: HEK cells (membrane homogenates)

rat α3β4 nAChRs [6] = target: T1, rat α3β4 nAChRs; assay: [3H]epibatidine competition binding, rat α3β4 nAChRs expressed in HEK cells
Description: (§2) Briefly, cultured cells at >80% confluence were removed from their flasks (80 cm^2) with a disposable cell scraper and placed in 10 ml of 50 mM Tris HCl buffer (pH 7.4, 4° C.). The cell suspension was centrifuged at 10,000×g for 5 min and the pellet was collected. For cells treated chronically with nicotinic agonists during culturing, the pellet was washed two more times by centrifugation in fresh buffer to remove residual drug. The cell pellet was then homogenized in 10 ml buffer with a polytron homogenizer (Model PT2100, 12 mm aggregate, 26,000 rpm, 20 seconds) and centrifuged at 36,000 g for 10 min at 4° C. The membrane pellet was resuspended in fresh buffer, and aliquots of the membrane preparation equivalent to 30 to 200 μg protein were used for binding assays. […] Bound and free ligands were separated by vacuum filtration through Whatman GF/C filters treated with 0.5% polyethylenimine. The filter-retained radioactivity was measured by liquid scintillation counting. Specific binding was defined as the difference between total binding and nonspecific binding. Data from saturation and competition binding assays were analyzed using Prism 4 (GraphPad Software, San Diego, Calif.).
(§3) All ligand binding assays were carried out using rat or human nAChRs heterologously expressed in human cells or in native rat brain tissues.

human α4β2 nAChRs [7] = target: T3, human α4β2 nAChRs (Homo sapiens, UniProt P17787+P43681); format: cell-based; details: stimulation of 86Rb+ efflux
T3 construct: expressed in transfected cells; the efflux text says only stably transfected cells
Description: as §1
(§4) The agonist activities of ligands on nAChRs were assessed by measuring agonist-stimulated ^86Rb^+ efflux from stably transfected cells.

rat α3β4 nAChRs [8] = target: T1, rat α3β4 nAChRs; format: cell-based; details: stimulation of 86Rb+ efflux
Description: as §1, §4

human α4β2 nAChRs [9] = target: T3, human α4β2 nAChRs; assay: Inhibition of nicotine-stimulated 86Rb+ efflux, cells expressing human α4β2 nAChRs; format: cell-based
Description: as §1

rat α4β2 nAChRs [10] = target: T2, rat α4β2 nAChRs; assay: [3H]epibatidine competition binding, rat α4β2 nAChRs expressed in HEK cells
Description: as §2, with “drug.” for “drug. The cell pellet was then homogenized in 10 ml buffer with a polytron homogenizer (Model PT2100, 12 mm aggregate, 26,000 rpm, 20 seconds) and centrifuged at 36,000 g for 10 min at 4° C. The membrane pellet was resuspended in fresh buffer, and aliquots of the membrane preparation equivalent to 30 to 200 μg protein were used for binding assays.”
as §3

[11] = cited from earlier work; remark: listed apart in the source
[12] = example tables, species not given, read-out: Equilibrium binding affinity (Ki, nM) α3β4
[13] = 10 min pretreatment before nicotine, read-out: Desensitization Potency (IC50(D,10 min), nM) α3β4
[14] = read-out: Acute Antagonist Potency (IC50(A), nM) α3β4
[15] = 10 min pretreatment before nicotine, read-out: Desensitization Potency (IC50(D,10 min), nM) α4β2
[16] = applied simultaneously with nicotine, read-out: Acute Antagonist Potency (IC50(A), nM) α4β2
[17] = example tables, species not given, read-out: Equilibrium binding affinity (Ki, nM) α4β2
[18] = applied simultaneously with nicotine, read-out: Acute Antagonist Potency (IC50(A), nM) α3β4
[19] = Acute Antagonist Potency (IC50(A), nM) α3β4, applied simultaneously with nicotine
[20] = Desensitization Potency (IC50(D,10 min), nM) α3β4, 10 min pretreatment before nicotine
[21] = Acute Antagonist Potency (IC50(A), nM) α4β2, applied simultaneously with nicotine
[22] = Desensitization Potency (IC50(D,10 min), nM) α4β2, 10 min pretreatment before nicotine

Row | Structure (SMILES) | Ki (rat α3β4 nAChRs [6]; [12]) [nM] | Agonist Activity α4β2 (human α4β2 nAChRs [7]) | Agonist Activity α3β4 (rat α3β4 nAChRs [8]) | IC50 (rat α3β4 nAChRs [3]; [13]) [nM] | IC50 (human α4β2 nAChRs [9]; [15]) [nM] | IC50 (human α4β2 nAChRs [9]; [16]) [nM] | Ki (rat α4β2 nAChRs [10]; [17]) [nM] | IC50 (rat α3β4 nAChRs [3]; [18]) [nM] | IC50 (rat α3β4 nAChRs [3]; [19]) [nM] | IC50 (rat α3β4 nAChRs [3]; [20]) [nM] | IC50 (human α4β2 nAChRs [9]; [21]) [nM] | IC50 (human α4β2 nAChRs [9]; [22]) [nM] | also measured
1 | CN1CCCC1c1cccnc1 (single isomer, unassigned; (-)) [(−)-Nicotine, nicotine] | – | – | – | – | – | – | – | – | – | – | – | – | t1/2 in vivo [1]: > 1 h
2 | CO[C@H]1CC=C2CCN3CCC4=C(CC(=O)OC4)[C@]23C1 [DHβE, dihydro-β-erythroidine] | – | – | – | – | – | – | – | – | – | – | – | – | Ki [2]: 0.13 ± 0.05 µM; IC50 (rat α3β4 nAChRs [3]; added simultaneously with 100 μM nicotine, mean ± SEM of 3 to 7 experiments, read-out: IC50 α3β4 nAChRs, 0 min Pretreatment): 160000 nM; IC50 (rat α3β4 nAChRs [3]; read-out: IC50 α3β4 nAChRs, 10 min Pretreatment, 10 min preincubation, then 100 μM nicotine, mean ± SEM of 3 to 7 experiments): 130000 nM; Ki (rat α3β4 nAChRs [4]): 110 µM; Ki (rat α4β2 nAChRs [5]): 0.6 ± 0.07 µM
3 | Cc1cc2n(c(=O)c1)CC1CNCC2C1 (stereo not shown) [SKC-2-150] | 6700 | Not detected | Not detected | > 10000 | 250 | > 10000 | 1.9 | – | – | – | – | – | IC50 (rat α3β4 nAChRs [3]; [14]): > 10000 nM
4 | O=c1cc(CO)cc2n1CC1CNCC2C1 (stereo not shown) [SKC-2-203] | 13000 | Not detected | Not detected | > 10000 | 600 | > 10000 | 11 | – | – | – | – | – | IC50 (rat α3β4 nAChRs [3]; [14]): > 10000 nM
5 | CNc1ccccc1C(=O)OCC#Cc1cncc(OC[C@@H]2CCN2)c1 [Sazetidine-B] | – | Not detected | Not detected | 6000 | 30 | > 10000 | – | > 10000 | – | – | – | – | Ki (rat α3β4 nAChRs [6]): 1300 nM; Ki (rat α4β2 nAChRs [10]): 0.22 nM
6 | C#Cc1cncc(OC[C@@H]2CCCN2C)c1 [ZW-87] | 6800 | Not detected | Not detected | – | – | – | 1.6 | – | > 10000 | > 10000 | > 10000 | 50 | –
7 | CN1CCC[C@H]1COc1cncc(C#CC(C)(C)O)c1 [ZW-88] | – | Not detected | Not detected | – | – | – | 2.9 | – | > 10000 | > 10000 | > 10000 | 890 | Ki (rat α3β4 nAChRs [6]): 61000 nM
8 | CN1CCC[C@H]1COc1cncc(C#CCO)c1 [ZW-89] | 23000 | Not detected | Not detected | – | – | – | 0.93 | – | > 10000 | > 10000 | > 10000 | 180 | –
9 | CN1CCC[C@H]1COc1cncc(CCCCCCO)c1 [ZW-91] | – | Not detected | Not detected | – | – | – | – | – | > 10000 | > 10000 | > 10000 | 1000 | –
10 | CN1CCC[C@H]1COc1cncc(C#CCCCCCCCCO)c1 [ZW-93] | 66000 | Not detected | Not detected | – | – | – | 6.1 | – | 4600 | 3800 | 7400 | 460 | –
11 | CN1CCC[C@H]1COc1cncc(C#CCNC(=O)OC(C)(C)C)c1 [ZW-97] | – | Not detected | Not detected | 6900 | 22 | > 10000 | – | > 10000 | – | – | – | – | Ki (rat α3β4 nAChRs [6]): 75000 nM; Ki (rat α4β2 nAChRs [10]): 1.4 nM
12 | CN1CCC[C@H]1COc1cncc(C#Cc2ccccc2)c1 [ZW-98] | 8100 | Not detected | Not detected | 5300 | 170 | > 10000 | 0.51 | > 10000 | – | – | – | – | –
13 | CCCCC#Cc1cncc(OC[C@@H]2CCCN2C)c1 [ZW-100] | 40000 | Not detected | Not detected | 3300 | 190 | > 10000 | 1.4 | > 10000 | – | – | – | – | –
14 | CN1CCC[C@H]1COc1cncc(C#CCCCCO)c1 [ZW-101] | – | Not detected | Not detected | 2500 | 160 | > 10000 | – | > 10000 | – | – | – | – | Ki (rat α3β4 nAChRs [6]): 16000 nM; Ki (rat α4β2 nAChRs [10]): 0.67 nM
15 | FCCCCC#Cc1cncc(OC[C@@H]2CCCN2)c1 [ZW-102] | 7600 | Not detected | Not detected | – | – | – | 0.91 | – | > 10000 | 5400 | > 10000 | 120 | –
16 | FCCCCC#Cc1cncc(OC[C@@H]2CCN2)c1 [ZW-104] | 5500 | Not detected | Not detected | – | – | – | – | – | 9400 | 5700 | > 10000 | 5 | Ki (rat α4β2 nAChRs [10]): 0.21 nM
17 | CN1CCC[C@H]1COc1cncc(C#CCCCCBr)c1 [ZW-109] | – | Not detected | Not detected | 2300 | 270 | > 10000 | – | 6900 | – | – | – | – | Ki (rat α3β4 nAChRs [6]): 16000 nM; Ki (rat α4β2 nAChRs [10]): 1.4 nM
18 | CN1CCC[C@H]1COc1cncc(C#CCCCCF)c1 [ZW-110] | 88000 | Not detected | Not detected | – | – | – | 0.95 | – | > 10000 | > 10000 | > 10000 | 60 | –
19 | c1cnc2cc3c(cc2n1)[C@@H]1CNC[C@H]3C1 [varenicline] | – | – | – | – | – | – | – | – | – | – | – | – | nausea, share of clinical trial participants [11]: ~30%
